Measured values published in PubChem BioAssay AID248 (DTP/NCI, 2004).
“And” between values parts separate entries of the source, which are not always exact repeats. Equal entries are not always repeated. Toxic doses and inconclusive results are not listed.

System: L1210 leukemia ip in BDF1 mice, survival T/C
Assay: NCI In Vivo Anticancer Drug Screen. Data for tumor model L1210 Leukemia (intraperitoneal) in B6D2F1 (BDF1) mice
Details: endpoint: mean survival time, higher = longer survival
How it was run: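 Value reflects the ratio of survival in compound-treated mice to survival in vehicle-treated controls, with both groups carrying the same transplanted tumor.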

[1] = dose: 100.0 mg/kg/injection, schedule: Q01DX001 (ip), vehicle: saline
[2] = dose: 200.0 mg/kg/injection, schedule: Q01DX001 (ip), vehicle: saline
[3] = dose: 100.0 mg/kg/injection, schedule: Q01DX001 (ip), vehicle: Klucel (hydroxypropylcellulose) (HPC)
[4] = dose: 200.0 mg/kg/injection, schedule: Q01DX001 (ip), vehicle: Klucel (hydroxypropylcellulose) (HPC)
[5] = dose: 25.0 mg/kg/injection, schedule: Q01DX009 (ip), vehicle: Klucel (hydroxypropylcellulose) (HPC)
[6] = dose: 50.0 mg/kg/injection, schedule: Q01DX009 (ip), vehicle: Klucel (hydroxypropylcellulose) (HPC)
[7] = dose: 100.0 mg/kg/injection, schedule: Q01DX009 (ip), vehicle: Klucel (hydroxypropylcellulose) (HPC)
[8] = dose: 200.0 mg/kg/injection, schedule: Q01DX009 (ip), vehicle: Klucel (hydroxypropylcellulose) (HPC)
[9] = dose: 400.0 mg/kg/injection, schedule: Q01DX009 (ip), vehicle: Klucel (hydroxypropylcellulose) (HPC)
[10] = dose: 50.0 mg/kg/injection, schedule: Q01DX001 (ip), vehicle: saline
[11] = dose: 100.0 mg/kg/injection, schedule: Q04DX003 (ip), vehicle: Klucel (hydroxypropylcellulose) (HPC)
[12] = dose: 200.0 mg/kg/injection, schedule: Q04DX003 (ip), vehicle: Klucel (hydroxypropylcellulose) (HPC)
[13] = dose: 400.0 mg/kg/injection, schedule: Q04DX003 (ip), vehicle: Klucel (hydroxypropylcellulose) (HPC)

CSc1nc(N)nc2c1ncn2C1OC(CO)C(O)C1O (configuration not stated)
T/C (dose: 63.0 mg/kg/injection, schedule: Q01DX009 (ip), vehicle: saline): 98 % of control
T/C [1]: 105 % of control
T/C (dose: 108.0 mg/kg/injection, schedule: Q01DX009 (ip), vehicle: saline): 98 % of control
T/C (dose: 178.0 mg/kg/injection, schedule: Q01DX001 (ip), vehicle: saline): 110 % of control
T/C (dose: 180.0 mg/kg/injection, schedule: Q01DX009 (ip), vehicle: saline): 118 % of control
T/C [2]: 112 % of control
T/C (dose: 267.0 mg/kg/injection, schedule: Q01DX001 (ip), vehicle: saline): 121 % of control

CC(CN1CC(=O)NC(=O)C1)N1CC(=O)NC(=O)C1.[Cl-].[Pt+4] (configuration not stated)
T/C (dose: 6.25 mg/kg/injection, schedule: Q01DX009 (ip), vehicle: saline): 110 % of control
T/C (dose: 25.0 mg/kg/injection, schedule: Q01DX009 (ip), vehicle: saline): 114 % of control and 120 % of control
T/C (dose: 25.0 mg/kg/injection, schedule: Q04DX003 (ip), vehicle: saline): 108 % of control
T/C (dose: 50.0 mg/kg/injection, schedule: Q01DX009 (ip), vehicle: saline): 120 % of control
T/C (dose: 50.0 mg/kg/injection, schedule: Q04DX003 (ip), vehicle: saline): 109 % of control and 120 % of control
T/C (dose: 100.0 mg/kg/injection, schedule: Q01DX009 (ip), vehicle: saline): 114 % of control
T/C (dose: 100.0 mg/kg/injection, schedule: Q04DX003 (ip), vehicle: saline): 153 % of control
T/C (dose: 150.0 mg/kg/injection, schedule: Q04DX003 (ip), vehicle: saline): 116 % of control

CCCCS(=O)(=O)N(CC)CC
T/C (dose: 100.0 mg/kg/injection, schedule: Q01DX009 (ip), vehicle: carboxymethylcellulose (CMC)): 109 % of control
T/C (dose: 200.0 mg/kg/injection, schedule: Q01DX009 (ip), vehicle: carboxymethylcellulose (CMC)): 96 % of control

[O-][n+]1c(C(Cl)(Cl)Cl)cc(Cl)nc1Cl
T/C [3]: 98 % of control
T/C [4]: 97 % of control

Nc1ncnc2c1ncn2C1OC(COP(=O)(O)O)C(O)C1OCc1ccccc1 (configuration not stated)
T/C (dose: 100.0 mg/kg/injection, schedule: Q01DX005 (ip), vehicle: saline): 112 % of control
T/C (dose: 200.0 mg/kg/injection, schedule: Q01DX005 (ip), vehicle: saline): 95 % of control

CCN(CC)CCCC(C)n1nnc2cc(Cl)ccc21 (configuration not stated)
T/C [1]: 97 % of control
T/C [2]: 97 % of control

O=[N+]([O-])c1cc(S(=O)(=O)c2ccc(Cl)c([N+](=O)[O-])c2)ccc1Cl
T/C [5]: 92 % of control
T/C [6]: 92 % of control
T/C [7]: 90 % of control
T/C [8]: 92 % of control
T/C [9]: 87 % of control

COc1cc(=O)n2cc(C)ccc2n1
T/C [10]: 98 % of control
T/C [1]: 101 % of control
T/C [2]: 95 % of control
T/C (dose: 400.0 mg/kg/injection, schedule: Q01DX001 (ip), vehicle: saline): 90 % of control

CCCCCCCCCCCCCCCC(=O)O[C@@]12C[C@@H](C)[C@@]3(O)[C@@H](C=C(CO)C[C@]4(O)C(=O)C(C)=C[C@@H]34)[C@@H]1C2(C)C
T/C (dose: 0.06 mg/kg/injection, schedule: Q01DX009 (ip), vehicle: saline): 97 % of control
T/C (dose: 0.13 mg/kg/injection, schedule: Q01DX009 (ip), vehicle: saline): 107 % of control
T/C (dose: 0.25 mg/kg/injection, schedule: Q01DX009 (ip), vehicle: saline): 95 % of control
T/C (dose: 0.5 mg/kg/injection, schedule: Q01DX009 (ip), vehicle: saline): 101 % of control

O=c1[nH]c2sccc2c(=O)n1OS(=O)(=O)c1ccccc1
T/C [7]: 105 % of control
T/C [8]: 122 % of control
T/C [9]: 93 % of control

CC1(O)CCCCCCC1
T/C [10]: 102 % of control
T/C [1]: 93 % of control
T/C [2]: 91 % of control

CC(=O)C12OC(C)(C)OC1CC1C3CCC4=CC(=O)CCC4(C)C3CCC12C (configuration not stated)
T/C (dose: 12.5 mg/kg/injection, schedule: Q04DX002 (ip), vehicle: Klucel (hydroxypropylcellulose) (HPC)): 108 % of control
T/C (dose: 25.0 mg/kg/injection, schedule: Q04DX002 (ip), vehicle: Klucel (hydroxypropylcellulose) (HPC)): 108 % of control
T/C (dose: 50.0 mg/kg/injection, schedule: Q04DX002 (ip), vehicle: Klucel (hydroxypropylcellulose) (HPC)): 94 % of control

Cc1n(CCBr)c([N+](=O)[O-])c[n+]1C1N=C(c2ccccc2)c2cc(Cl)ccc2NC1=O (configuration not stated)
T/C [11]: 101 % of control
T/C [12]: 94 % of control

N#C/C(=C\c1cccn1Cc1cc2ccccc2c2ccccc12)C(N)=O
T/C (dose: 25.0 mg/kg/injection, schedule: Q04DX002 (ip), vehicle: saline): 105 % of control
T/C (dose: 50.0 mg/kg/injection, schedule: Q04DX002 (ip), vehicle: saline): 108 % of control
T/C (dose: 100.0 mg/kg/injection, schedule: Q04DX002 (ip), vehicle: saline): 119 % of control

CCC(=O)OCN1C(=O)C2C3CCC(O3)C2C1=O (configuration not stated)
T/C (dose: 87.5 mg/kg/injection, schedule: Q01DX009 (ip), vehicle: other): 98 % of control
T/C (dose: 175.0 mg/kg/injection, schedule: Q01DX009 (ip), vehicle: other): 111 % of control

[O-][n+]1ccccc1SSc1cccc[n+]1[O-]
T/C (dose: 6.25 mg/kg/injection, schedule: Q01DX009 (ip), vehicle: Klucel (hydroxypropylcellulose) (HPC)): 99 % of control
T/C (dose: 12.5 mg/kg/injection, schedule: Q01DX009 (ip), vehicle: Klucel (hydroxypropylcellulose) (HPC)): 96 % of control and 98 % of control
T/C [5]: 88 % of control

CNO
T/C [7]: 100 % of control
T/C [11]: 95 % of control
T/C [8]: 97 % of control
T/C [12]: 95 % of control
T/C [13]: 109 % of control

COc1cc(C=O)c([N+](=O)[O-])cc1OC
T/C [1]: 102 % of control
T/C [2]: 102 % of control

Cc1cccc(C)c1NC(=O)Oc1ccc(Cl)cc1Cc1ccccc1
T/C [7]: 88 % of control
T/C [8]: 88 % of control
T/C [9]: 102 % of control

CN1CN(c2ccccc2)C2(CCN(CCCCCCC#N)CC2)C1=O
T/C (dose: 25.0 mg/kg/injection, schedule: Q04DX003 (ip), vehicle: Klucel (hydroxypropylcellulose) (HPC)): 102 % of control
T/C (dose: 50.0 mg/kg/injection, schedule: Q04DX003 (ip), vehicle: Klucel (hydroxypropylcellulose) (HPC)): 94 % of control
T/C [12]: 90 % of control
T/C [13]: 97 % of control

CCCCCCCCCCCCCCCC(C1CCCC1)C1CCCC1
T/C (dose: 75.0 mg/kg/injection, schedule: Q01DX001 (ip), vehicle: saline with Tween-80): 99 % of control
T/C (dose: 150.0 mg/kg/injection, schedule: Q01DX001 (ip), vehicle: saline with Tween-80): 97 % of control
T/C (dose: 300.0 mg/kg/injection, schedule: Q01DX001 (ip), vehicle: saline with Tween-80): 101 % of control

Cc1cnc2cc(Cl)ccc2n1
T/C [6]: 94 % of control
T/C [7]: 93 % of control
T/C [11]: 102 % of control
T/C [8]: 107 % of control
T/C [12]: 96 % of control

COC(=O)C1C(=O)C(C(=O)OC)C2C(C(=O)OC)C(=O)C(C(=O)OC)C12 (configuration not stated)
T/C [3]: 104 % of control
T/C [7]: 93 % of control
T/C [11]: 97 % of control
T/C [4]: 101 % of control
T/C [8]: 95 % of control
T/C [12]: 96 % of control
T/C (dose: 400.0 mg/kg/injection, schedule: Q01DX001 (ip), vehicle: Klucel (hydroxypropylcellulose) (HPC)): 103 % of control
T/C [9]: 98 % of control
T/C [13]: 102 % of control

COc1ccc(C(=O)c2ccc3ccccc3c2)cc1
T/C (dose: 100.0 mg/kg/injection, schedule: Q01DX001 (ip), vehicle: carboxymethylcellulose (CMC)): 92 % of control
T/C (dose: 200.0 mg/kg/injection, schedule: Q01DX001 (ip), vehicle: carboxymethylcellulose (CMC)): 92 % of control
T/C (dose: 400.0 mg/kg/injection, schedule: Q01DX001 (ip), vehicle: carboxymethylcellulose (CMC)): 94 % of control

CCCCCCCCCCCCCCCCOc1c(Cl)cc(Cl)cc1Cl
T/C (dose: 100.0 mg/kg/injection, schedule: Q04DX002 (ip), vehicle: Klucel (hydroxypropylcellulose) (HPC)): 102 % of control
T/C (dose: 200.0 mg/kg/injection, schedule: Q04DX002 (ip), vehicle: Klucel (hydroxypropylcellulose) (HPC)): 98 % of control
T/C (dose: 400.0 mg/kg/injection, schedule: Q04DX002 (ip), vehicle: Klucel (hydroxypropylcellulose) (HPC)): 102 % of control
